From patent US20060276464A1, “Diarylsulfone sulfonamides and use thereof” (Wyeth, priority 2005, published 2006)
Several values for one entry are separate records, joined by “and”; a condition that tells them apart may be missing. Identical values can stand only once. Counter-ions that a name gives are not always drawn. Like-named read-outs stand apart in the source and are kept apart here.

Assays:
[1] = target: T1, SFRP-1 (Homo sapiens, UniProt Q8N474); assay: Fluorescence polarization binding assay (competitive displacement of a probe compound from SFRP-1); settings: fluorescence anisotropy, 45 nM SFRP-1, 20 nM probe;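 also: test compound competes with a fluorescent probe held by SFRP-1, seen as a drop in probe anisotropy after incubation in darkness, with anisotropy as function of rising compound dose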
T1 sequence (Q8N474 32-314): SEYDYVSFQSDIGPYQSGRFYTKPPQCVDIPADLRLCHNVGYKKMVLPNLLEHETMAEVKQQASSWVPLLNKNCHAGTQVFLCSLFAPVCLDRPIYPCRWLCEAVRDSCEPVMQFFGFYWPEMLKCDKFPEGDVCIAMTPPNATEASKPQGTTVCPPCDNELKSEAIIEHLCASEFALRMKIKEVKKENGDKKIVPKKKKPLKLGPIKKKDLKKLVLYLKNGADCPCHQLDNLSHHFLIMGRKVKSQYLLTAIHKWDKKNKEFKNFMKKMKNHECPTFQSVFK

[2] = target: T1, SFRP-1; assay: Cell-based assay for in vitro measurement of SFRP-1/SARP2 antagonist activity (U2OS cells co-transfected with 16x TCF-tk-Luciferase reporter, Wnt and hSFRP-1); settings: for fold induction at 15 µM / fold induction at 10 µM: U2OS; for fold induction at 10 µM: read-out: Fold Induction with SFRP-1, U2OS cells, single dose 10 μM, luciferase reporter, fold induction over SFRP-1 control;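 as to all read-outs here: U2OS cells co-transfected with a TCF-tk luciferase reporter, a Wnt vector, hSFRP-1 or empty vector and CMV-βgal, luciferase luminescence read in cell lysates alongside βgal activity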
[3] = read-out: Fold Induction with SFRP-1, Conc 15 μM, single dose, luciferase reporter, fold induction over SFRP-1 control, cells with SFRP-1
[4] = read-out: Fold Induction without SFRP-1, Conc 15 μM, single dose, luciferase reporter, cells without SFRP-1 (specificity control)
[5] = read-out: Fold Induction with SFRP-1, Conc 15 μM, with SFRP-1, fold induction over SFRP-1 control, single dose
[6] = read-out: Fold Induction without SFRP-1, Conc 15 μM, without SFRP-1, single dose

## CC(C)c1ccc(S(=O)(=O)c2ccc(N3CCN(C)CC3)cc2)cc1S(=O)(=O)NCC1CCOCC1 [Example 548, 2-isopropyl-5-{[4-(4-methylpiperazin-1-yl)phenyl]sulfonyl}-N-(tetrahydro-2H-pyran-4-ylmethyl)benzenesulfonamide]
[1]
  IC50: 2.2 µM
[2]; [3]
  fold induction at 15 µM: 2.5
[2]; [4]
  fold induction at 15 µM: 1.2

## O=C(O)c1ccc(-c2ccc(CNS(=O)(=O)c3cc(S(=O)(=O)c4ccccc4)ccc3C(F)(F)F)cc2)cc1 [Example 979, 4′-[({[5-(phenylsulfonyl)-2-(trifluoromethyl)phenyl]sulfonyl}amino)methyl]biphenyl-4-carboxylic acid]
[1]
  IC50: 2.2 µM
[2]
  EC50: 2.94 µM

## CCOC(=O)NC(=S)N1CCC(NS(=O)(=O)c2cc(S(=O)(=O)c3ccc(F)cc3)ccc2C(C)C)CC1 [Example 693, ethyl({4-[({5-[(4-fluorophenyl)sulfonyl]-2-isopropylphenyl}sulfonyl)amino]piperidin-1-yl}carbonothioyl)carbamate]
[1]
  IC50: 0.4 µM
[2]
  EC50: 1.08 µM
  fold induction at 10 µM: 3.5

## Cn1ccc2cc(S(=O)(=O)c3ccc(Cl)c(S(=O)(=O)NC4CCOCC4)c3)ccc21 [Example 607, 2-chloro-5-[(1-methyl-1H-indol-5-yl)sulfonyl]-N-(tetrahydro-2H-pyran-4-yl)benzenesulfonamide]
[1]
  IC50: 2 µM
[2]; [3]
  fold induction at 15 µM: 2.3
[2]; [4]
  fold induction at 15 µM: 1.1

## CC(C)c1ccc(S(=O)(=O)c2ccc(NCCC#N)cc2)cc1S(=O)(=O)NCCn1ccnc1 [Example 450, 5-({4-[(2-cyanoethyl)amino]phenyl}sulfonyl)-N-[2-(1H-imidazol-1-yl)ethyl]-2-isopropylbenzenesulfonamide]
[1]
  IC50: 0.4 µM and 0.2 µM and 0.3 µM
[2]; [5]
  fold induction at 15 µM: 4
[2]; [6]
  fold induction at 15 µM: 1

## C/C(=N\O)c1ccc(S(=O)(=O)c2ccc(C)c(S(=O)(=O)NC3CCOCC3)c2)cc1 [Example 402, 5-({4-[(1E)-N-hydroxyethanimidoyl]phenyl}sulfonyl)-2-methyl-N-(tetrahydro-2H-pyran-4-yl)benzenesulfonamide]
[1]
  IC50: 2.6 µM
[2]; [5]
  fold induction at 15 µM: 2.5
[2]; [6]
  fold induction at 15 µM: 1.1

## CC(C)(C)OC(=O)N1CCC[C@H](NS(=O)(=O)c2cc(S(=O)(=O)c3ccccc3)ccc2C(F)(F)F)C1 [Example 786, tert-butyl(3S)-3-({[5-(phenylsulfonyl)-2-(trifluoromethyl)phenyl]sulfonyl}amino)piperidine-1-carboxylate]
[1]
  IC50: 4.4 µM
[2]
  fold induction at 10 µM: 1.7

## CN(CCNS(=O)(=O)c1cc(S(=O)(=O)c2ccccc2)ccc1C(F)(F)F)C(=O)OCC(C)(C)C [Example 867, 2,2-dimethylpropyl methyl[2-({[5-(phenylsulfonyl)-2-(trifluoromethyl)phenyl]sulfonyl}amino)ethyl]carbamate]
[1]
  IC50: 0.8 µM
[2]
  fold induction at 10 µM: 2.8

## NCCNS(=O)(=O)c1cc(S(=O)(=O)c2ccccc2)ccc1C(F)(F)F [Example 762, N-(2-Aminoethyl)-5-(phenylsulfonyl)-2-(trifluoromethyl)benzenesulfonamide hydrochloride]
[1]
  IC50: 2.1 µM
[2]
  fold induction at 10 µM: 2.2

## CN(CCNS(=O)(=O)c1cc(S(=O)(=O)c2ccccc2)ccc1C(F)(F)F)C(=O)NC1CCN(C(=O)OC(C)(C)C)CC1 [Example 866]
[1]
  IC50: 0.8 µM
[2]
  fold induction at 10 µM: 4.6

## CC(C)(C)c1ccc(NC(=O)N2CCC(NS(=O)(=O)c3cc(S(=O)(=O)c4ccccc4)ccc3C(F)(F)F)CC2)cc1 [Example 759, N-(4-tert-butylphenyl)-4-({[5-(phenylsulfonyl)-2-(trifluoromethyl)phenyl]sulfonyl}amino)piperidine-1-carboxamide]
[1]
  IC50: 1.6 µM
[2]
  fold induction at 10 µM: 3.5

## CC(C)c1ccc(S(=O)(=O)c2cccc3c(N(C)C)cccc23)cc1S(=O)(=O)NCCc1ccccn1 [Example 474, 5-{[5-(dimethylamino)-1-naphthyl]sulfonyl}-2-isopropyl-N-(2-pyridin-2-ylethyl)benzenesulfonamide]
[1]
  IC50: 0.8 µM
[2]; [5]
  fold induction at 15 µM: 1.4
[2]; [6]
  fold induction at 15 µM: 1

## CC1(C)CC(NS(=O)(=O)c2cc(S(=O)(=O)c3ccccc3)ccc2C(F)(F)F)CC(C)(C)N1 [Example 948, 5-(phenylsulfonyl)-N-(2,2,6,6-tetramethylpiperidin-4-yl)-2-(trifluoromethyl)benzenesulfonamide]
[1]
  IC50: 6 µM
[2]
  EC50: 2.74 µM
  fold induction at 10 µM: 2.4

## C[C@H](CO)NS(=O)(=O)c1cc(S(=O)(=O)c2ccccc2)ccc1C(F)(F)F [Example 726, N-[(1R)-2-hydroxy-1-methylethyl]-5-(phenylsulfonyl)-2-(trifluoromethyl)benzenesulfonamide]
[1]
  IC50: 0.8 µM
[2]
  fold induction at 10 µM: 3

## COC(=O)[C@H]1CC[C@H](CNS(=O)(=O)c2cc(S(=O)(=O)c3ccccc3)ccc2C(C)C)CC1 [Example 934, methyl trans-4-[({[2-isopropyl-5-(phenylsulfonyl)phenyl]sulfonyl}amino)methyl]cyclohexanecarboxylate]
[1]
  IC50: 2.8 µM
[2]
  EC50: 2.73 µM
  fold induction at 10 µM: 2.3

## Cc1ccc(S(=O)(=O)c2ccc(C(C)(C)C)cc2)cc1S(=O)(=O)NCCCn1ccnc1 [Example 439, 5-[(4-tert-butylphenyl)sulfonyl]-N-[3-(1H-imidazol-1-yl)propyl]-2-methylbenzenesulfonamide]
[1]
  IC50: 2 µM
[2]; [5]
  fold induction at 15 µM: 2
[2]; [6]
  fold induction at 15 µM: 0.9

## CC(C)c1ccc(S(=O)(=O)c2ccc(F)cc2)cc1S(=O)(=O)NCCc1c[nH]cn1 [Example 442, 5-[(4-fluorophenyl)sulfonyl]-N-[2-(1H-imidazol-4-yl)ethyl]-2-isopropylbenzenesulfonamide]
[1]
  IC50: 1 µM
[2]; [5]
  fold induction at 15 µM: 3.9
[2]; [6]
  fold induction at 15 µM: 1

## CN(CCNS(=O)(=O)c1cc(S(=O)(=O)c2ccccc2)ccc1C(F)(F)F)C(=O)N1CCNCC1 [Example 898, N-methyl-N-[2-({[5-(phenylsulfonyl)-2-(trifluoromethyl)phenyl]sulfonyl}amino)ethyl]piperazine-1-carboxamide]
[1]
  IC50: 1 µM
[2]
  EC50: 1.93 µM
  fold induction at 10 µM: 3.1

## CN(CCNS(=O)(=O)c1cc(S(=O)(=O)c2ccccc2)ccc1C(F)(F)F)C(=O)N[C@@H]1CCNC1 [Example 1008, N-[2-(methyl{[(3R)-pyrrolidin-3-ylamino]carbonyl}amino)ethyl]-5-(phenylsulfonyl)-2-(trifluoromethyl)benzenesulfonamide]
[1]
  IC50: 3 µM
[2]
  EC50: 0.936 µM

## O=C(c1ccc(F)cc1Cl)N1CCC(NS(=O)(=O)c2cc(S(=O)(=O)c3ccccc3)ccc2C(F)(F)F)CC1 [Example 716, N-[1-(2-chloro-4-fluorobenzoyl)piperidin-4-yl]-5-(phenylsulfonyl)-2-(trifluoromethyl)benzenesulfonamide]
[1]
  IC50: 0.3 µM
[2]
  EC50: 1.76 µM
  fold induction at 10 µM: 4.2

## CN(CCNS(=O)(=O)c1cc(S(=O)(=O)c2ccccc2)ccc1C(F)(F)F)C(=O)c1cccnc1 [Example 849, N-Methyl-N-[2-({[5-(phenylsulfonyl)-2-(trifluoromethyl)phenyl]sulfonyl}amino)ethyl]nicotinamide]
[1]
  IC50: 0.7 µM
[2]
  EC50: 2.1 µM
  fold induction at 10 µM: 3.9

## Cc1ccc(S(=O)(=O)c2ccccc2)cc1S(=O)(=O)NC1CCSCC1 [Example 798, 2-methyl-5-(phenylsulfonyl)-N-(tetrahydro-2H-thiopyran-4-yl)benzenesulfonamide]
[1]
  IC50: 4 µM
[2]
  fold induction at 10 µM: 1.8

## CC(C)c1ccc(S(=O)(=O)c2ccc(NCCC#N)cc2)cc1S(=O)(=O)NC1CCOCC1 [Example 535, 5-({4-[(2-cyanoethyl)amino]phenyl}sulfonyl)-2-isopropyl-N-(tetrahydro-2H-pyran-4-yl)benzenesulfonamide]
[1]
  IC50: 0.4 µM
[2]; [3]
  fold induction at 15 µM: 3.8
[2]; [4]
  fold induction at 15 µM: 1.2

## CC(C)c1ccc(S(=O)(=O)c2ccc(F)cc2)cc1S(=O)(=O)NCC(O)c1cccnc1 (centres unmarked) [Example 731, 5-[(4-fluorophenyl)sulfonyl]-N-(2-hydroxy-2-pyridin-3-ylethyl)-2-isopropylbenzenesulfonamide]
[1]
  IC50: 1.9 µM
[2]
  fold induction at 10 µM: 3.3

## COc1ccc(C(=O)N(C)CCNS(=O)(=O)c2cc(S(=O)(=O)c3ccccc3)ccc2C(F)(F)F)cc1 [Example 822, 4-Methoxy-N-methyl-N-[2-({[5-(phenylsulfonyl)-2-(trifluoromethyl)phenyl]sulfonyl}amino)ethyl]benzamide]
[1]
  IC50: 0.2 µM
[2]
  EC50: 1.84 µM
  fold induction at 10 µM: 3.4

## CN(CCCNS(=O)(=O)c1cc(S(=O)(=O)c2ccccc2)ccc1C(F)(F)F)C(=O)N1CCNCC1 [Example 975, N-methyl-N-[3-({[5-(phenylsulfonyl)-2-(trifluoromethyl)phenyl]sulfonyl}amino)propyl]piperazine-1-carboxamide]
[1]
  IC50: 1.5 µM
[2]
  EC50: 5.7 µM

## Cc1ccc(S(=O)(=O)c2ccccc2)cc1S(=O)(=O)NCCCn1ccnc1 [Example 219, N-[3-(1H-imidazol-1-yl)propyl]-2-methyl-5-(phenylsulfonyl)benzenesulfonamide]
[1]
  IC50: 3 µM and 1.1 µM and 2.1 µM
[2]; Conc 15 μM, with SFRP-1, fold induction over SFRP-1 control, single dose
  Fold Induction with SFRP-1: 3.6 fold
[2]; [5]
  fold induction at 15 µM: 3
[2]; [6]
  fold induction at 15 µM: 1.1
